Assay results published in patent US20100075926A1, “ACTIVATION OF HISTONE DEACETYLASE 1 (HDAC1) PROTECTS AGAINST DNA DAMAGE AND INCREASES NEURONAL SURVIVAL” (priority 2008, published 2010).

What was measured:
primary cortical neurons = assay: γH2AX and Ki-67 immunostaining of primary cortical neurons treated with HDAC1 inhibitor; format: cell-based; conditions: 1 μM, 24 h, compared to vehicle (DMSO) controls
Description: (A, B) Primary cortical neurons were transfected with either HDAC1 siRNA or random sequence siRNA, along with GFP at a 7:1 ratio to label transfected neurons. Cells were fixed at 24 h, 48 h, and 72 h post-transfection and immunostained for γH2AX. GFP-positive neurons were scored for γH2AX immunoreactivity and for cell death based on nuclear condensation and neuritic integrity, as described in Methods. (A) Representative micrographs. HDAC1 siRNA or control (random sequence) siRNA transfected neurons are indicated by arrows. The HDAC1 siRNA transfected neurons display neuritic breakage. The inset is a magnification of the γH2AX staining of the neuron indicated by arrow and asterisk, showing γH2AX foci of varying sizes. Percentage of γH2AX and cell death are shown as averages from multiple sets ±S.D. It was noted that transfection of control siRNA per se appeared to cause a low but detectable level of γH2AX immunoreactivity and cell death. […] Controls were treated with equal amounts of vehicle (DMSO). Total numbers of γH2AX and Ki-67 positive neurons were quantified over 20 microscope fields (field diameter ˜900 μm). Scale bar=100 μm. […] Scale bar=[…].
Our findings raised the possibility that p25/cdk5 may cause both cell cycle reentry and DNA damage through inhibition of HDAC1 activity. We examined the effects of siRNA-mediated knockdown or pharmacological inhibition of HDAC1.

WT mice = assay: Contextual fear conditioning in WT mice; format: in vivo, mouse
Description: Fear conditioning. Fear conditioning experiments were carried out as previously described (Kim et al., 2007), using a fear conditioning apparatus (TSE Systems, Midland, Mich.).

leukemia patients = conditions: phase I clinical trial; cited from earlier work
recombinant human HDAC8 = target: T1, recombinant human HDAC8 (Homo sapiens, UniProt Q9BY41); assay: Caliper mobility shift deacetylase assay, HDAC8; format: biochemical; conditions: at the indicated concentration (8-40 μM); avg. n = 2; relative to DMSO
T1 sequence (Q9BY41 1-377): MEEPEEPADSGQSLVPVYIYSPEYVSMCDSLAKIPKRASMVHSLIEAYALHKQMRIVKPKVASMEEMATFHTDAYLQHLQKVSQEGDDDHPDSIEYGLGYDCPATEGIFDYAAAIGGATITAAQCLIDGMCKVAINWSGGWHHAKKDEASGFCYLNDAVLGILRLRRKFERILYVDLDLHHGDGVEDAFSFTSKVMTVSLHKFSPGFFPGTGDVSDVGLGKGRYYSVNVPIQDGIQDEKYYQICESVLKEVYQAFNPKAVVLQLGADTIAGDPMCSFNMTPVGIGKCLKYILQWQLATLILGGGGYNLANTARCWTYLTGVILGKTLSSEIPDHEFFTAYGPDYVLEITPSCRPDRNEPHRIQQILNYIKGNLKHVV
Description: (§1) To identify small molecule activators of HDAC1, a diverse collection of 1,760 small molecules composed of synthetic compounds, natural products, and a subset of FDA approved drugs were arrayed in 384-well plates as ˜10 mM dimethylsulphoxide (DMSO) stocks. To identify modulators (both activators and inhibitors) of HDACs, a fluorescence-based assay that utilizes Caliper's mobility shift assay technology (Hopkinton, Mass.) was used. This assay is based on the electrophoretic separation of N-acetyl lysine peptide substrate from the deacetylated product, which bears an additional positive charge. […] The product and substrate in each independent reaction were separated using a microfluidic chip (Caliper Life Sciences) run on a Caliper LC3000 (Caliper Life Sciences). The product and substrate fluorophore were excited at 488 nm and detected at 530 nm. Substrate conversion was calculated from the electrophoregram using HTS Well Analyzer software (Caliper Life Sciences). Since the amount of converted substrate is measured, and the reactions were performed at the Km for each enzyme, it is possible to identify both inhibitors and activators of HDACs using this assay.
(§2) Using the mobility shift assay, all compounds were screened in duplicate using a panel of class I and class II HDACs and a N-acetyl lysine peptide substrate. For class I HDACs, HDAC1, HDAC2, and HDAC8 were used. For class IIb HDACs, HDAC6 and to HDAC10 were used. Compounds were incubated for 18-24 hrs and the percent inhibition (avg. n=2) relative to a solvent (DMSO) control treatment of each compound determined through measurement of substrate conversion.

recombinant human HDAC10 = target: T2, recombinant human HDAC10 (Homo sapiens, UniProt Q969S8); assay: Caliper mobility shift deacetylase assay, HDAC10; format: biochemical; conditions: at the indicated concentration (8-40 μM); avg. n = 2; relative to DMSO
T2 sequence (Q969S8 1-669): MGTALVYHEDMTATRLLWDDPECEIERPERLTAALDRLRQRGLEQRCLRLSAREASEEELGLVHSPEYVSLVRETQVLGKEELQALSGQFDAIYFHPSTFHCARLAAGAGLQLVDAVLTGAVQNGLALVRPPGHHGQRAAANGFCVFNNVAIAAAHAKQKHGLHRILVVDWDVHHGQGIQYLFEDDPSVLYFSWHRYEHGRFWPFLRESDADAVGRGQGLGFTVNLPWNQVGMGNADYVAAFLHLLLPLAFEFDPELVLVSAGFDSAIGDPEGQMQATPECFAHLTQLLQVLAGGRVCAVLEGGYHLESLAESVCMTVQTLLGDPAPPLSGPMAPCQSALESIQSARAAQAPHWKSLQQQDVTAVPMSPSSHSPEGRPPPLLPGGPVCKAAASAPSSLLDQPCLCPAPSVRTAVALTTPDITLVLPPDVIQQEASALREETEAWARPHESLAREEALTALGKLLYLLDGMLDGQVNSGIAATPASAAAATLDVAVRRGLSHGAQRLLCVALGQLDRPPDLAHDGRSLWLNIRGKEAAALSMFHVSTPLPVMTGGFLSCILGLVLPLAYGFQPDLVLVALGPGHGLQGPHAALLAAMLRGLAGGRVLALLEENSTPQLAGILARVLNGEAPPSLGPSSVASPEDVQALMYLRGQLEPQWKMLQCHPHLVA
Description: as §1, §2

recombinant human HDAC2 = target: T3, recombinant human HDAC2 (Homo sapiens, UniProt Q92769); assay: Caliper mobility shift deacetylase assay, HDAC2; format: biochemical; conditions: at the indicated concentration (8-40 μM); avg. n = 2; relative to DMSO
T3 construct: purchased BPS Biosciences
T3 sequence (Q92769 whole entry): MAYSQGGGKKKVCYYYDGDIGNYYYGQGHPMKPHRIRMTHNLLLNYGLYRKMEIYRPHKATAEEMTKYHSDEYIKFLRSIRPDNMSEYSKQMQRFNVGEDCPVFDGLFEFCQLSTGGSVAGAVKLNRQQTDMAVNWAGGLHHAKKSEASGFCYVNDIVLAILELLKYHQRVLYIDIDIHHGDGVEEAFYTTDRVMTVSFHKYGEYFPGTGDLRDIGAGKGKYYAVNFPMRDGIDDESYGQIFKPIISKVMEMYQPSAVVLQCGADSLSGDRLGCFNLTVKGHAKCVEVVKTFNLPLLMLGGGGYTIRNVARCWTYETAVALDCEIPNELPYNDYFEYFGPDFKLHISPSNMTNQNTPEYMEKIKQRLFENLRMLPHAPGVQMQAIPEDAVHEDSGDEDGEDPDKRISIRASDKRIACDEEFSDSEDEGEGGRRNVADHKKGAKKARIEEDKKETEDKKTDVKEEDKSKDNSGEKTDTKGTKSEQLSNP
From the text: (§3) Values indicate % deacetylase inhibition (avg. n=2) relative to a solvent (DMSO) control treatment measured using recombinant human HDAC1 or HDAC2 and Caliper's mobility shift assay technology. Circle color corresponds to compounds shaded by degree of HDAC1 activity (red, decreased; blue, increased). (A) Complete dataset with box outlined with the red dashes corresponding to the region shown highlighted in (B), which in the assay corresponds to negative inhibition.
as §1
as §2, with “conversion. […] FIG. 11 provides a list of all of the structures that activated HDAC1 by a value of 5% or greater.” for “conversion.”

recombinant human HDAC1 = target: T4, recombinant human HDAC1 (Homo sapiens, UniProt Q13547); assay: Caliper mobility shift deacetylase assay, HDAC1; format: biochemical; conditions: at the indicated concentration (8-40 μM); avg. n = 2; relative to DMSO
T4 construct: purchased BPS Biosciences
T4 sequence (Q13547 whole entry): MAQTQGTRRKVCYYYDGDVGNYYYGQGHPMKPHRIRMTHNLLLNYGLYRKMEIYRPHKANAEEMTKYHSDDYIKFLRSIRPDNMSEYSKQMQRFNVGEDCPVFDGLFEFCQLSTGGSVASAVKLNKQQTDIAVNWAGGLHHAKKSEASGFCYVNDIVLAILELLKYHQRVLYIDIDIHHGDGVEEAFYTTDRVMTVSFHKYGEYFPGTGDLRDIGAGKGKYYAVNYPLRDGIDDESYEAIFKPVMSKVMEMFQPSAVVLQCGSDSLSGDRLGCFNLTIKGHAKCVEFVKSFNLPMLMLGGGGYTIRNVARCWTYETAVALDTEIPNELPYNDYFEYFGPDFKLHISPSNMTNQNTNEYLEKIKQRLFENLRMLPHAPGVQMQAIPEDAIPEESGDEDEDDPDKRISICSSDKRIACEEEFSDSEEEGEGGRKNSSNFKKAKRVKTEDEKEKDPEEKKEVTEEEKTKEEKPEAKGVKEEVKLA
From the text: as §3, §1
as §2, with “conversion. […] FIG. 11 provides a list of all of the structures that activated HDAC1 by a value of 5% or greater.” for “conversion.”

recombinant human HDAC6 = target: T5, recombinant human HDAC6 (Homo sapiens, UniProt Q9UBN7); assay: Caliper mobility shift deacetylase assay, HDAC6; format: biochemical; conditions: at the indicated concentration (8-40 μM); avg. n = 2; relative to DMSO
T5 sequence (Q9UBN7 1-1215): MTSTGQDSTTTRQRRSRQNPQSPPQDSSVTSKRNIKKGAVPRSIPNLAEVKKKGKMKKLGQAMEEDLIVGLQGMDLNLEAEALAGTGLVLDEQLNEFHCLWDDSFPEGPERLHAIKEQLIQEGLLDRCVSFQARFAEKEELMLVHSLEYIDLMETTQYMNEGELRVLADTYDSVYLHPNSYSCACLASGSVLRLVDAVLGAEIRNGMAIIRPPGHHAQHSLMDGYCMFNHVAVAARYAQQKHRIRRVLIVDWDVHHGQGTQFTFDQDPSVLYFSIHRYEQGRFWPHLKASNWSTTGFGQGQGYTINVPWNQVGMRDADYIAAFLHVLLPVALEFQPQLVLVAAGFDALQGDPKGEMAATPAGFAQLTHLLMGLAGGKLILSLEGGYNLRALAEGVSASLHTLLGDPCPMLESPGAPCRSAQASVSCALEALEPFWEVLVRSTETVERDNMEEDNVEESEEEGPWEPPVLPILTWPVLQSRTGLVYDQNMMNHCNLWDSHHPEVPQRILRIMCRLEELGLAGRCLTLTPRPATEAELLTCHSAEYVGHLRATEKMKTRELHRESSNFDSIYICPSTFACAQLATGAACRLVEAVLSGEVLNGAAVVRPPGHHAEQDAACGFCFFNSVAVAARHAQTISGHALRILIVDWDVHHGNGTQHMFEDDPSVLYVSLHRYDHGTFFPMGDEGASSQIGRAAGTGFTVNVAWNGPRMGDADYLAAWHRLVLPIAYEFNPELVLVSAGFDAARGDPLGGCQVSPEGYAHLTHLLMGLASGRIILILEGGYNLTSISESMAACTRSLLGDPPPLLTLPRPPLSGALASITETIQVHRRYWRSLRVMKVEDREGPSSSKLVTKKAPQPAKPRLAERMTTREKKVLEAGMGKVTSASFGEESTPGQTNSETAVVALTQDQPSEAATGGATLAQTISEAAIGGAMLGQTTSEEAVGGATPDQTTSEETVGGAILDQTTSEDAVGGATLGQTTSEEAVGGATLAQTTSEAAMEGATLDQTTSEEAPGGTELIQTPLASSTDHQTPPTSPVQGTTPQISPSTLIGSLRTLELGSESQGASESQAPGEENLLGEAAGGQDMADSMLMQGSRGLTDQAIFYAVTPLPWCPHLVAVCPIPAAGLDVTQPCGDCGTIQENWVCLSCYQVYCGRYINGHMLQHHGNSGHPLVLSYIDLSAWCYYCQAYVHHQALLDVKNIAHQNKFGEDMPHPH
Description: as §1, §2

[1] = system: brain-derived neurotrophic factor (BDNF) expression in glioma cell line (C6); assay: BDNF expression in glioma cell line (C6); format: cell-based; conditions: submicromolar concentrations, data not shown

| Compound | aberrant expression of Ki-67 (Ki-67 positive neurons) (primary cortical neurons) [fold increase] | double strand DNA breaks (γH2AX positive neurons) (primary cortical neurons) [fold increase] | freezing behavior in contextual fear conditioning (WT mice; 25 mg/kg IP daily for 10 days, vs saline) | associative learning capability (contextual fear conditioning) (WT mice; 12.5 or 25 mg/kg IP daily for 10 days) | HDAC8 % activation of deacetylase activity (recombinant human HDAC8) [%] | HDAC10 % activation of deacetylase activity (recombinant human HDAC10) [%] | HDAC2 % activation of deacetylase activity (recombinant human HDAC2) [%] | HDAC1 % activation of deacetylase activity (recombinant human HDAC1) [%] | HDAC6 % activation of deacetylase activity (recombinant human HDAC6) [%] | dose-limiting toxicity (DLT) (leukemia patients) | expression of brain-derived neurotrophic factor (BDNF) [1] |
| --- | --- | --- | --- | --- | --- | --- | --- | --- | --- | --- | --- |
| Nc1ccccc1NC(=O)c1ccc(CNC(=O)OCc2cccnc2)cc1 [MS-275] | 1.8 | 8.1 | reduced freezing behavior | impaired associative learning capability | – | – | – | – | – | neurologic toxicity manifesting as unsteady gait and somnolence | – |
| O=c1c(O)cc([C@H]2Oc3cc(O)cc(O)c3C[C@H]2O)cc2c([C@H]3Oc4cc(O)cc(O)c4C[C@H]3O)cc(O)c(O)c12 [theaflavin] | – | – | – | – | −10 | 0 | −8 | 5 | −79 | – | – |
| CC(=O)N(O)CCCCCNC(=O)CCC(=O)N(O)CCCCCNC(=O)CCC(=O)N(O)CCCCCN [deferoxamine] | – | – | – | – | 4 | 2 | −3 | 8 | −5 | – | – |
| COc1ccc(-c2cc(=O)c3c(O)cc(O)c(-c4cc(-c5cc(=O)c6c(O)cc(OC)cc6o5)ccc4OC)c3o2)cc1 [sciadopitysin] | – | – | – | – | 0 | 19 | −4 | 19 | −5 | – | – |
| CC(C)=CCC[C@]1(C)C=Cc2c(O)c3c(c(CC=C(C)C)c2O1)O[C@]12C(=C[C@@H]4C[C@H]1C(C)(C)O[C@@]2(C/C=C(/C)C(=O)O)C4=O)C3=O [gambogic acid] | – | – | – | – | −8 | 13 | −5 | 22 | −63 | – | – |
| ginkgetin K [genxgetin K] | – | – | – | – | −3 | 56 | −7 | 42 | −18 | – | – |
| O=C(CCCCCCC(=O)Nc1ccccc1)NO [SAHA, suberoylanilide hydroxamic acid] | – | – | – | – | – | – | – | – | – | – | induced expression |

Further lines, with some results ahead:

| aberrant expression of Ki-67 (Ki-67 positive neurons) (primary cortical neurons) [fold increase] | double strand DNA breaks (γH2AX positive neurons) (primary cortical neurons) [fold increase] | freezing behavior in contextual fear conditioning (WT mice; 25 mg/kg IP daily for 10 days, vs saline) | associative learning capability (contextual fear conditioning) (WT mice; 12.5 or 25 mg/kg IP daily for 10 days) | HDAC8 % activation of deacetylase activity (recombinant human HDAC8) [%] | HDAC10 % activation of deacetylase activity (recombinant human HDAC10) [%] | HDAC2 % activation of deacetylase activity (recombinant human HDAC2) [%] | HDAC1 % activation of deacetylase activity (recombinant human HDAC1) [%] | HDAC6 % activation of deacetylase activity (recombinant human HDAC6) [%] | Compound | dose-limiting toxicity (DLT) (leukemia patients) | expression of brain-derived neurotrophic factor (BDNF) [1] |
| --- | --- | --- | --- | --- | --- | --- | --- | --- | --- | --- | --- |
| – | – | – | – | 0 | 1 | −5 | 5 | −2 | COC(=O)[C@H]1[C@H]2C[C@H]3c4[nH]c5ccccc5c4CCN3C[C@H]2CC[C@@H]1O [alpha-yohimbine] | – | – |
| – | – | – | – | 2 | −3 | −1 | 5 | −4 | CC1=NN(c2ccc(Br)cc2Br)C(=O)/C1=C(/C)NCc1ccccc1 [TAM-12] | – | – |
| – | – | – | – | −1 | 13 | −6 | 11 | −10 | tetrahydrogamboic acid | – | – |
